Test [1] concerns DNA tetrahedron. In words: DNA-THZ1 binding assay (G-25 column, UV absorption 220 nm). The method, then: FIGS. 3A-3B. DNA-THZ1 binding assay. (A) Analysis of binding ratio of THZ1 to DNA tetrahedron using UV absorption of THZ1 (220 nm). DNA tetrahedron (0.2 μM) was added different amounts of THZ1 (2-12 μM). The unbound THZ1 was removed through a Sephadex G-25 column for the detection samples. (B) Analysis of THZ1 binding to DNA tetrahedron (TH)-4ZHER1 using 1% agarose gel electrophoresis. The gel was run at 110 V for 1 h, and stained with ethidium bromide. Lanes 1-5, […] DNA tetrahedron (TH)-4ZHER1 incubated with 0-200 folds of THZ1.
DNA-THZ1 binding assay: The DNA binding property of THZ1 was evaluated following our reported method.^43 DNA tetrahedron was incubated with 10-60 fold of THZ1. After purification with G-25 column to remove unbound THZ1, the amount of THZ1 in the DNA tetrahedron was measured using UV absorption at 220 nm. […] Then we used a 1% agarose gel to analyze the binding property for high concentrations of THZ1. […] Thus, we used 50-fold of THZ1 to prepare DNA tetrahedron-4ZHER1-THZ1 nanostructure (I) for following assays.

Test [2] has as its system MB-231 cells. In words: Growth/death of MB-231 cells after 48 h incubation. The class given is cell-based. Particulars: 500 nM THZ1. Here is the method:
(§1) FIGS. 4A-4H. Crosslinking of BC cells induced by I. MB-231 cells without drug treatment (A, D); with 500 nM THZ1 (B, E); with 10 nM I (C, F) were incubated 24 h and 48 h, respectively. (G) Calculated crosslinking efficiency of MB-231 cells in the presence of 10 nM I in 24 h (p<0.001); (H) Calculated crosslinking efficiency of BT474 cells in the presence of 10 nM I in 24 h.
(§2) Crosslinking assay: Crosslinking of TNBC cells by I was verified using a HER1 overexpressing TNBC cell line (MDA-MB-23146). In the presence of nanostructure I (containing 50 copies of THZ1), the cells were effectively crosslinked to each other through multiple ZHER1-HER1 bindings. […] The crosslinking efficiency was up to 96% in 24 h (FIG. 4G). [Crosslinking efficiency (%)=(cell number without any treatment-non-aggregated cell number)× 100%/(cell number without any treatment). Data were reported as the mean of three independent experiments].

For test [3], the system named is MDA-MB-231 cells. In words: Crosslinking assay of HER1 overexpressing TNBC cells. Format: cell-based. Particulars: 500 nM free THZ1; 24 h. The method, then: as §1, §2
Test [4] has as its system MB231 cancer cells. Put plainly: Invasion assay (matrigel treated Transwell). The conditions noted are these: 500 nM THZ1; 24 h; p<0.001. Format: cell-based. The method, then:
(§3) FIGS. 5A-5E. Migration assays for MB231 breast cancer cells. (A) without drug treatment; (B) treatment with THZ1; (C) treatment with nanostructure I; (D) Migration rate of MB231 (migrated cell numbers/control cell numbers×100%) (p<0.001); (E) Invasion rate of MB231 (invaded cell numbers/control cell numbers×100%) (p<0.001).
Invasion assay: To verify whether nanostructure I blocks cells from passing through vessel walls, an invasion assay was performed using a matrigel matrix treated Transwell™ to mimic the vessel wall. […] As a negative control, the invasion of HER1 negative BT474 BC cells were not affected by I (FIG. 6B).

Test [5] has as its system double-strand linear DNA (20 bp, 40 bp and 60 bp). In words: Linear double-strand DNA binding to THZ1 (1% agarose gel). Particulars: 40-160 mM THZ1. Here is the method:
FIG. 9. Verification of linear DNA binding to THZ1. Double-strand linear DNAs were mixed with different amounts of THZ1 and loaded on 1% agarose gel. The gels were run at 150 V for 20 min, and stained with EtBr.
Binding of DNA to THZ1 was evaluated (FIG. 9). Double-strand linear DNAs (20 bp, 40 bp and 60 bp) were prepared by mixing two complimentary DNAs (as listed below) in 50 mM Tris-HCl, pH 7.5, containing 50 mM NaCl. The reaction mixtures were heated at 90 °C for 5 min, then cool to room temperature. To keep the same base-pair number for each same, the 20 bp DNA was adjusted to 2 mM; 40 bp DNA was adjusted to 1 mM; 60 bp DNA was adjusted to 0.67 mM. Then 40-160 mM THZ1 were added to each sample and loaded on 1% agarose gel.

Test [6] has as its system MB231 breast cancer cells. Put plainly: Transwell migration assay. The class given is cell-based. The conditions noted are these: 500 nM THZ1; 24 h; p<0.001. Here is the method: as §3
Migration assay: To verify whether nanostructure I blocks TNBC cell dissociation from aggregated cell clusters, a Transwell™ migration assay was performed. […] Since nanostructure I contains the same amount of THZ1, the enhanced inhibition of migration by nanostructure I is attributed to its ability to crosslink the cells. As a negative control, the migration of HER1 negative BT474 BC cells were not inhibited by I (FIG. 6A).

For test [7], the system named is breast cancer. The conditions noted are these: breast cancer patients; cited from earlier work.
The subject of test [8] is TNBC. Particulars: employed as a single agent; cited from earlier work.

For the compound `CN(C)C/C=C/C(=O)Nc1ccc(C(=O)Nc2cccc(Nc3ncc(Cl)c(-c4c[nH]c5ccccc45)n3)c2)cc1` [THZ1], the “concentration of THZ1 in DNA tetrahedron” value in test [1] (0.2 μM DNA tetrahedron, ratio THZ1/DNA tetrahedron 10 to 50, UV 220 nm after G-25 column) is listed as “increased linearly”. The “passage of THZ1/DNA complex through G-25 column” value in test [1] (ratio THZ1/DNA tetrahedron 60) was “part of THZ1/DNA complex did not pass through the G-25 column”. Further, the cell growth result in test [2] was “partially growth inhibited”. Further, the cell aggregation entry in test [3] is “not aggregated”. The inhibition of invasion in test [4] is reported as 51%. Further, the “binding to double-strand DNA” value in test [5] is “can bind to double-strand DNA”. Moreover, in test [6], the inhibition of migration is reported as 57%.
As for “Patritumab deruxtecan: HER3 antibody drug conjugate”, the clinical activity entry in test [7] is “early and clinically meaningful activity”.
Regarding “panitumumab: Anti-HER1 monoclonal antibody”, the “benefit to TNBC patients” value in test [8] is reported as “neither antibody confers significant benefit to TNBC patients”.

The record behind these values is patent US20260356984A1, “DNA-AFFIBODY-DRUG NANOSTRUCTURES FOR INHIBITING TRIPLE NEGATIVE BREAST CANCER GROWTH AND METASTASIS” (ARIZONA BOARD OF REGENTS ON BEHALF OF ARIZONA STATE …, priority 2022, published 2026).
